Results published in ChEMBL document CHEMBL3885861, “Open TG-GATES”.

Species: Rattus norvegicus
Experiment: Open TG-GATES - Regimen: Single
Assay type: toxicity, organism-based, Sprague-Dawley
Design: regimen Single, gender Male, age 6 weeks
Conditions: in vivo, po, 100 mg/kg, route gavage, dose level Low; for APTT / Bas / Eos / Fbg / Hb / Ht / Lym / MCH / MCHC / MCV / Mono / Neu / PT / Plat / RBC / Ret / WBC: tissue Blood; for KIDNEY_L / KIDNEY_R / KIDNEY_TOTAL: tissue Kidney; for LIVER: tissue Liver; for A/G / ALP / ALT / AST / BUN / CRE / Ca / Cl / DBIL / GLC / IP / K / LDH / Na / PL / RALB / TBIL / TC / TG / TP / gamma-GTP: tissue Plasma

## O=C(O)COc1nn(Cc2ccccc2)c2ccccc12 [BENDAZAC]
3 h
  TERMINAL_BW: 207.2 g
  APTT: 16.8 s
  Bas: 0%
  Eos: 1%
  Fbg: 209.6 mg/dL
  Hb: 14 g/dL
  Ht: 42.1%
  Lym: 80.8%
  MCH: 21.8 pg
  MCHC: 33.4%
  MCV: 65.2 fL
  Mono: 7.2%
  Neu: 11.6%
  PT: 11.3 s
  Plat: 131.9 x10_4/uL
  RBC: 644.8 x10_4/ul
  Ret: 9.1%
  WBC: 111.8 x10_2/uL
  KIDNEY_L: 1 g
  KIDNEY_R: 1 g
  KIDNEY_TOTAL: 1.9 g
  LIVER: 9.9 g
  A/G: 2.1
  ALP: 1620.8 IU/L
  ALT: 35.8 IU/L
  AST: 68 IU/L
  BUN: 12.8 mg/dL
  CRE: 0.6 mg/dL
  Ca: 10.9 mg/dL
  Cl: 102 meq/L
  DBIL: 0.008 mg/dL
  GLC: 196.8 mg/dL
  IP: 9.2 mg/dL
  K: 4.6 meq/L
  LDH: 93.2 IU/L
  Na: 140.2 meq/L
  PL: 130.2 mg/dL
  RALB: 3.7 g/dL
  TBIL: 1.4 mg/dL
  TC: 73.6 mg/dL
  TG: 56.2 mg/dL
  TP: 5.4 g/dL
  gamma-GTP: 1.4 IU/L
6 h
  TERMINAL_BW: 207.8 g
  APTT: 16.4 s
  Bas: 0%
  Eos: 1%
  Fbg: 202.2 mg/dL
  Hb: 13.9 g/dL
  Ht: 41.6%
  Lym: 79.4%
  MCH: 21.6 pg
  MCHC: 33.4%
  MCV: 64.9 fL
  Mono: 8.8%
  Neu: 11.2%
  PT: 12 s
  Plat: 113.2 x10_4/uL
  RBC: 641.8 x10_4/ul
  Ret: 10.5%
  WBC: 96.2 x10_2/uL
  KIDNEY_L: 1 g
  KIDNEY_R: 1 g
  KIDNEY_TOTAL: 2 g
  LIVER: 9.2 g
  A/G: 2.3
  ALP: 1175.6 IU/L
  ALT: 35.2 IU/L
  AST: 66 IU/L
  BUN: 13 mg/dL
  CRE: 0.6 mg/dL
  Ca: 10.8 mg/dL
  Cl: 103.4 meq/L
  DBIL: 0.09 mg/dL
  GLC: 183.8 mg/dL
  IP: 10.7 mg/dL
  K: 4.8 meq/L
  LDH: 90.6 IU/L
  Na: 140.2 meq/L
  PL: 126 mg/dL
  RALB: 3.7 g/dL
  TBIL: 1.2 mg/dL
  TC: 70.8 mg/dL
  TG: 41.4 mg/dL
  TP: 5.3 g/dL
  gamma-GTP: 1.8 IU/L
9 h
  TERMINAL_BW: 207.3 g
  APTT: 17 s
  Bas: 0%
  Eos: 1%
  Fbg: 218.2 mg/dL
  Hb: 13.5 g/dL
  Ht: 40.3%
  Lym: 70%
  MCH: 22 pg
  MCHC: 33.6%
  MCV: 65.4 fL
  Mono: 8.8%
  Neu: 20%
  PT: 11.7 s
  Plat: 125.1 x10_4/uL
  RBC: 617 x10_4/ul
  Ret: 8.5%
  WBC: 105.7 x10_2/uL
  KIDNEY_L: 0.9 g
  KIDNEY_R: 1 g
  KIDNEY_TOTAL: 1.9 g
  LIVER: 8.6 g
  A/G: 2.1
  ALP: 1541.8 IU/L
  ALT: 29 IU/L
  AST: 58.2 IU/L
  BUN: 11.6 mg/dL
  CRE: 0.6 mg/dL
  Ca: 10.6 mg/dL
  Cl: 104.4 meq/L
  DBIL: 0.034 mg/dL
  GLC: 189 mg/dL
  IP: 9.8 mg/dL
  K: 4.4 meq/L
  LDH: 90.2 IU/L
  Na: 142.8 meq/L
  PL: 127.2 mg/dL
  RALB: 3.8 g/dL
  TBIL: 1 mg/dL
  TC: 75.4 mg/dL
  TG: 34.2 mg/dL
  TP: 5.6 g/dL
  gamma-GTP: 1.2 IU/L
24 h
  TERMINAL_BW: 225.9 g
  APTT: 17.2 s
  Bas: 0%
  Eos: 1%
  Fbg: 209.8 mg/dL
  Hb: 13.4 g/dL
  Ht: 40.2%
  Lym: 73%
  MCH: 21.6 pg
  MCHC: 33.3%
  MCV: 64.9 fL
  Mono: 11.6%
  Neu: 14.4%
  PT: 11.8 s
  Plat: 115.2 x10_4/uL
  RBC: 619 x10_4/ul
  Ret: 7.9%
  WBC: 109.4 x10_2/uL
  KIDNEY_L: 1.1 g
  KIDNEY_R: 1.1 g
  KIDNEY_TOTAL: 2.2 g
  LIVER: 11.5 g
  A/G: 2.1
  ALP: 1133.2 IU/L
  ALT: 39.6 IU/L
  AST: 62.8 IU/L
  BUN: 16.8 mg/dL
  CRE: 0.6 mg/dL
  Ca: 11.3 mg/dL
  Cl: 104.2 meq/L
  DBIL: 0.024 mg/dL
  GLC: 204.8 mg/dL
  IP: 8 mg/dL
  K: 4.6 meq/L
  LDH: 127.8 IU/L
  Na: 141.2 meq/L
  PL: 147 mg/dL
  RALB: 3.7 g/dL
  TBIL: 0.4 mg/dL
  TC: 74.2 mg/dL
  TG: 86.4 mg/dL
  TP: 5.5 g/dL
  gamma-GTP: 1.2 IU/L
